Reference: patent US20060121072A1, “Topical parasiticide formulations and methods of treatment” (priority 2002, published 2006)

Tests used:
[1] = Plasma pharmacokinetics of ivermectin in cattle; format: in vivo
Description: (§1) Formulations according to the invention were tested for their efficacy in delivering benzimidazoles and macrocyclic lactones to the bloodstream of mammals (cattle), and compared to the efficacy in delivering these agents to animals' bloodstreams by standard commercially available drench (Fasinex 120®), and an experimental solvent-based triclabendazole/ivermectin pour-on formulation.
(§2) Cattle (typically Hereford or Hereford cross) with either natural or artificially infected burdens of fluke and nematodes were used in pen and field trials. Within a given trial animals were allotted into treatment groups, each having similar mean weights and fluke and nematode burdens. Experimental treatments were applied along the backline using a commercially available backliner gun fitted with a plastic shroud to ensure correct delivery of the formulation according to the protocol.
(§3) Blood samples (plasma) were taken by venipuncture of the jugular vein at the designated time intervals. Analysis for triclabendazole and ivermectin residues in the plasma was carried out and reported by commercial contract laboratories.
Ivermectin was extracted from the plasma using acetonitrile and concentrated by evaporation. The sample was cleaned up by solid phase extraction (SPE) chromatography and the ivermectin determined as the N-methyl imidazole derivative using reverse phase HPLC with fluorescence detection.

[2] = Plasma pharmacokinetics of triclabendazole (with sulphone and sulphoxide metabolites) in cattle; format: in vivo
Description: as §1
as §2, with “Within a given trial animals were allotted into treatment groups, each having similar mean weights and fluke and nematode burdens.” left out
as §3
The triclabendazole was extracted from the plasma using ethyl acetate. Following concentration and SPE clean up, the triclabendazole and its sulphone and sulphoxide metabolites were analysed by reverse phase HPLC using UV detection.

[3] = Table 2 pour-on 90 g/L triclabendazole + 10.0 g/L ivermectin, 1 mL/10 kg, 1.0 mg/kg
[4] = Table 2 pour-on 120 g/L triclabendazole + 5.0 g/L ivermectin, 1 mL/10 kg, 0.5 mg/kg
[5] = Table 2 pour-on 180 g/L triclabendazole + 7.5 g/L ivermectin, 1 mL/10 kg, 0.75 mg/kg
[6] = Table 3 pour-on 240 g/L triclabendazole + 3.33 g/L ivermectin (triethanolamine), 1 ml/6.67 kg, 0.5 mg/kg
[7] = Table 3 pour-on 240 g/L triclabendazole + 5 g/L ivermectin (sodium dodecyl sulphate), 1 ml/10 kg, 0.5 mg/kg
[8] = Table 3 pour-on 240 g/L triclabendazole + 10 g/L ivermectin (triethanolamine), 1 ml/20 kg, 0.5 mg/kg
[9] = Table 4 pour-on 180 g/L triclabendazole + 7.5 g/L ivermectin, 1 mL/15 kg, mean treatment area 110 cm^2, 0.5 mg/kg
[10] = Table 4 pour-on 240 g/L triclabendazole + 10.0 g/L ivermectin, 1 mL/20 kg, mean treatment area 76 cm^2, 0.5 mg/kg

With 22,23-dihydroavermectin B1 [Ivermectin] the “Ivermectin AUC” value [1, 3] was 88 ng·days/mL, the “Ivermectin Mean plasma” value [1, 3] was 4.4 ng/mL and the “Ivermectin Plasma Cmax” value [1, 3] was 8 ng/mL. The “Ivermectin Tmax” value [1, 3] was 5 days, the “Ivermectin AUC” value [1, 4] was 52 ng·days/mL and the “Ivermectin Mean plasma” value [1, 4] was 2.5 ng/mL. The “Ivermectin Plasma Cmax” value [1, 4] was 8 ng/mL, the “Ivermectin Tmax” value [1, 4] was 5 days and the “Ivermectin AUC” value [1, 5] was 79 ng·days/mL. For the same molecule, the “Ivermectin Mean plasma” value [1, 5] was 4.1 ng/mL, the “Ivermectin Plasma Cmax” value [1, 5] was 13 ng/mL and the “Ivermectin Tmax” value [1, 5] was 5 days. The “Ivermectin AUC” value [1, 6] was 82 ng·days/mL, the “Ivermectin Plasma Cmax” value [1, 6] was 7.5 ng/mL and the “Ivermectin Tmax” value [1, 6] was 7 days. For the same molecule, the “Ivermectin AUC” value [1, 7] was 84 ng·days/mL, the “Ivermectin Plasma Cmax” value [1, 7] was 9.5 ng/mL and the “Ivermectin Tmax” value [1, 7] was 5 days. The “Ivermectin AUC” value [1, 8] was 104 ng·days/mL, the “Ivermectin Plasma Cmax” value [1, 8] was 10.4 ng/mL and the “Ivermectin Tmax” value [1, 8] was 7 days. For the same molecule, the “Ivermectin AUC” value [1, 9] was 30 ng·days/mL, the “Ivermectin Mean plasma conc^n” value [1, 9] was 1.7 ng/mL and the “Ivermectin AUC” value [1, 10] was 43 ng·days/mL. For the same molecule, the “Ivermectin Mean plasma conc^n” value [1, 10] was 2.2 ng/mL.
With `CSc1nc2cc(Cl)c(Oc3cccc(Cl)c3Cl)cc2[nH]1` [Triclabendazole, 5-chloro-6-(2,3-dichlorophenoxy)-2-(methylthio)-benzimidazole] the “Triclabendazole AUC” value ([2]; Table 2 pour-on 90 g/L triclabendazole + 10.0 g/L ivermectin, 1 mL/10 kg, 9.0 mg/kg) was 72 µg·days/mL, the “Triclabendazole AUC” value ([2]; Table 2 pour-on 120 g/L triclabendazole + 5.0 g/L ivermectin, 1 mL/10 kg, 12 mg/kg) was 85 µg·days/mL and the “Triclabendazole AUC” value ([2]; Table 2 pour-on 180 g/L triclabendazole + 7.5 g/L ivermectin, 1 mL/10 kg, 18 mg/kg) was 139 µg·days/mL. For the same molecule, the “Triclabendazole AUC” value ([2]; Table 3 pour-on 240 g/L triclabendazole + 3.33 g/L ivermectin (triethanolamine), 1 ml/6.67 kg, 36 mg/kg) was 177 µg·days/mL, the “Triclabendazole AUC” value ([2]; Table 3 pour-on 240 g/L triclabendazole + 5 g/L ivermectin (sodium dodecyl sulphate), 1 ml/10 kg, 24 mg/kg) was 129 µg·days/mL and the “Triclabendazole AUC” value ([2]; Table 3 pour-on 240 g/L triclabendazole + 10 g/L ivermectin (triethanolamine), 1 ml/20 kg, 12 mg/kg) was 73 µg·days/mL. For the same molecule, the “Triclabendazole AUC” value ([2]; Table 4 pour-on 180 g/L triclabendazole + 7.5 g/L ivermectin, 1 mL/15 kg, mean treatment area 110 cm^2, 12.0 mg/kg) was 65 µg·days/mL and the “Triclabendazole AUC” value ([2]; Table 4 pour-on 240 g/L triclabendazole + 10.0 g/L ivermectin, 1 mL/20 kg, mean treatment area 76 cm^2, 12.0 mg/kg) was 170 µg·days/mL.
